Experimental data published in ChEMBL document CHEMBL1132119, “1-Arylnaphthalene lignan: a novel scaffold for type 5 phosphodiesterase inhibitor” (J Med Chem, 1999).

What was measured:
[1] = target: cGMP-specific 3',5'-cyclic phosphodiesterase (Canis lupus familiaris, UniProt O77746); test: Inhibitory activity against phosphodiesterase 5 (PDE V), isolated from lung
[2] = target: Phosphodiesterase 3 (Canis familiaris); test: Inhibitory activity against phosphodiesterase 3 (PDE 3) isolated from cardiac ventricle
[3] = target: Phosphodiesterase 1 (Canis familiaris); test: Inhibitory activity against phosphodiesterase 1 (PDE I), isolated from cardiac ventricle
Rattus norvegicus = organism: Rattus norvegicus; test: Relaxant effect on rat aortic rings.; assay type: functional, organism-based; settings: Aorta
[4] = target: Phosphodiesterase 4 (Canis familiaris); test: Inhibition of canine lung Phosphodiesterase 4
[5] = target: Phosphodiesterase 2 (Canis familiaris); test: Inhibition of canine adrenal gland Phosphodiesterase 2

| Structure (SMILES) | IC50 [1] [nM] | IC50 [2] [µM] | IC50 [3] [µM] | EC50 (Rattus norvegicus) [nM] | IC50 [4] [µM] | IC50 [5] [µM] |
| --- | --- | --- | --- | --- | --- | --- |
| COC(=O)c1cc2cc(OC)c(OC)cc2c(-c2cc(OC)c(OC)c(OC)c2)c1C(=O)OC | 2100 | > 100 | > 100 | – | – | – |
| CCOC(=O)C1CCN(C(=O)c2cc3cc(OC)c(OC)cc3c(-c3cc(OC)c(OC)c(OC)c3)c2C(=O)OC)CC1 | 2000 | 60 | 24 | – | – | – |
| COC(=O)c1c(C(=O)N2CCN(CCO)CC2)cc2cc(OC)c(OC)cc2c1-c1cccc([N+](=O)[O-])c1 | > 100000 | > 100 | > 100 | – | – | – |
| CCOc1cc2cc(C(=O)N3CCN(CCO)CC3)c(C(=O)OC)c(-c3cc(Br)c(OC)c(OC)c3)c2cc1OC | 17 | – | – | 300 | – | – |
| COC(=O)c1c(C(=O)N2CCC(O)CC2)cc2cc(OC)c(OC)cc2c1-c1cc(OC)c(OC)c(OC)c1 | 170 | > 100 | 74 | – | – | – |
| COC(=O)c1c(C(=O)N2CCN(CCO)CC2)cc2cc(OC)ccc2c1-c1cc(Br)c(OC)c(OC)c1 | 12 | – | – | 560 | – | – |
| COC(=O)c1c(C(=O)N2CCN(CCO)CC2)cc2cc(OC)c(OC)cc2c1-c1cc(OC)c(OC)c(OC)c1 | 94 | > 100 | 41 | 2000 | > 100 | > 100 |
| COC(=O)c1c(C(=O)N2CCN(CCO)CC2)cc2cc(OC)c(OC)cc2c1-c1ccnc(Br)c1 | > 100000 | – | – | – | – | – |
| COC(=O)c1c(C(=O)N(C)C)cc2cc(OC)c(OC)cc2c1-c1cc(OC)c(OC)c(OC)c1 | 230 | 16 | 35 | – | – | – |
| COC(=O)c1c(C(=O)N2CCN(CCO)CC2)cc2c(Cl)cccc2c1-c1cc(Br)c(OC)c(OC)c1 | 6.2 | – | – | 100 | – | – |
| COC(=O)c1c(C(=O)N2CCN(CCO)CC2)cc2cc(OC)c(OC)cc2c1-c1cc(Cl)c(OC)c(OC)c1 | 49 | > 100 | 26 | 1300 | > 100 | > 100 |
| COC(=O)c1c(C(=O)N2CCCC2)cc2cc(OC)c(OC)cc2c1-c1cc(OC)c(OC)c(OC)c1 | 780 | – | – | – | – | – |
| COC(=O)c1c(C(=O)N2CCN(CCO)CC2)cc2cc(OC)c(OC)cc2c1-c1cc(Cl)cc(Cl)c1 | 54000 | > 100 | > 100 | – | – | – |
| COC(=O)c1c(C(=O)N2CCN(CCO)CC2)cc2cc(OC)c(OC)cc2c1-c1cc(Br)c(OC)c(OC)c1 | 24 | > 100 | 11 | 460 | > 100 | > 100 |
| COC(=O)c1c(CN2CCN(CCO)CC2)cc2cc(OC)c(OC)cc2c1-c1cc(OC)c(OC)c(OC)c1 | 2400 | > 100 | 26 | – | – | – |
| COC(=O)c1c(C(=O)N2CCC(=O)CC2)cc2cc(OC)c(OC)cc2c1-c1cc(OC)c(OC)c(OC)c1 | 500 | > 100 | 88 | – | – | – |
| COC(=O)c1c(C(=O)N2CCN(CCO)CC2)cc2cc(OC)c(OC)cc2c1-c1ccc2c(c1)OCO2 | 33000 | > 100 | 55 | – | – | – |
| COC(=O)c1c(C(=O)N2CCN(CCO)CC2)cc2cc(OC)c(OC)cc2c1-c1cc(N)c(OC)c(OC)c1 | 30000 | > 100 | > 100 | – | – | – |
| COc1cc2cc(CO)c(CO)c(-c3cc(OC)c(OC)c(OC)c3)c2cc1OC | 13000 | 0.88 | 18 | – | – | – |

| Structure (SMILES) | IC50 [1] [nM] | IC50 [2] [µM] | IC50 [3] [µM] | EC50 (Rattus norvegicus) [nM] | IC50 [4] [µM] | IC50 [5] [µM] |
| --- | --- | --- | --- | --- | --- | --- |
| COc1cc2cc3c(c(-c4cc(OC)c(OC)c(OC)c4)c2cc1OC)COC3=O | 68 | 0.84 | 0.43 | – | – | – |
| COC(=O)c1c(C(=O)N2CCN(CCO)CC2)cc2cc(OC)c(OC)c(OC)c2c1-c1cc(Br)c(OC)c(OC)c1 | > 100000 | > 100 | > 100 | – | – | – |
| COC(=O)c1c(C(=O)N2CCN(C)CC2)cc2cc(OC)c(OC)cc2c1-c1cc(OC)c(OC)c(OC)c1 | 1400 | > 100 | 69 | – | – | – |
| COC(=O)c1c(C(N)=O)cc2cc(OC)c(OC)cc2c1-c1cc(OC)c(OC)c(OC)c1 | > 100000 | 0.32 | 0.82 | – | – | – |
| COC(=O)c1c(C(=O)N2CCC(CO)CC2)cc2cc(OC)c(OC)cc2c1-c1cc(OC)c(OC)c(OC)c1 | 320 | > 100 | 45 | – | – | – |
| COC(=O)c1c(C(=O)N2CCCCC2)cc2cc(OC)c(OC)cc2c1-c1cc(OC)c(OC)c(OC)c1 | 2100 | – | – | – | – | – |
| COC(=O)c1c(C(=O)N2CCN(CCO)CC2)cc2cc(OC)c(OC)cc2c1-c1cc(OC)c(OC)cc1C | 52000 | – | – | – | – | – |
| COc1cc2cc(C(=O)N3CCN(CCO)CC3)c(CO)c(-c3cc(OC)c(OC)c(OC)c3)c2cc1OC | > 100000 | > 100 | > 100 | – | – | – |
| COc1cc2cc(N)c(CO)c(-c3cc(OC)c(OC)c(OC)c3)c2cc1OC | 13000 | 3.5 | 2.1 | – | – | – |
| COC(=O)c1c(C(=O)N2CCN(CCO)CC2)cc2ccc(C)cc2c1-c1cc(Br)c(OC)c(OC)c1 | 51 | > 100 | 3.5 | – | – | – |
| CNC(=O)c1cc2cc(OC)c(OC)cc2c(-c2cc(OC)c(OC)c(OC)c2)c1C(=O)OC | > 100000 | 2.9 | > 100 | – | – | – |
| COC(=O)c1c(C(=O)N2CCN(CCO)CC2)cc2cc(OC)c(OC)cc2c1/C=C/c1cc(OC)c(OC)c(OC)c1 | > 100000 | – | – | – | – | – |
| COC(=O)c1c(C(=O)N2CCN(CCO)CC2)cc2ccccc2c1-c1cc(Br)c(OC)c(OC)c1 | 25 | > 100 | 3.4 | 790 | > 100 | > 100 |
| COC(=O)c1c(C(=O)N2CCN(CCO)CC2)cc2cc(OC)c(OC)cc2c1-c1ccc(Cl)c(Cl)c1 | 53000 | > 100 | 82 | – | – | – |
| COC(=O)c1c(C(=O)N2CCN(CCO)CC2)cc2cc(OC)c(OC)cc2c1-c1cccs1 | > 100000 | > 100 | 77 | – | – | – |
| COc1cc2cc3c(c(-c4cc(OC)c(OC)c(OC)c4)c2cc1OC)C(=O)N(C)C3=O | > 100000 | > 100 | > 100 | – | – | – |
| O=C(O)C1CCN(c2nc(NCc3ccc4c(c3)OCO4)c3cc(Cl)ccc3n2)CC1 | 1.6 | – | – | 200 | – | – |
| COC(=O)c1c(C(=O)N2CCN(CCO)CC2)cc2ccc(Cl)cc2c1-c1cc(Br)c(OC)c(OC)c1 | 21 | > 100 | 1.1 | – | – | – |
| COC(=O)c1c(C(=O)N2CCOCC2)cc2cc(OC)c(OC)cc2c1-c1cc(OC)c(OC)c(OC)c1 | 390 | – | – | – | – | – |
